Laboratory results reported in PMC6522981, “Structure-based design generated novel hydroxamic acid based preferential HDAC6 lead inhibitor with on-target cytotoxic activity against primary choroid plexus carcinoma” (Journal of Enzyme Inhibition and Medicinal Chemistry, 2019).
Read-outs that look alike come from different tables or passages of the source.

Assays:
[1] = biological target: human HDAC5 (Homo sapiens, UniProt Q9UQL6); assay: HDAC5 inhibitor enzymatic assay, % inhibition at fixed concentration
[2] = biological target: human HDAC4 (Homo sapiens, UniProt P56524); assay: HDAC4 inhibitor enzymatic assay, % inhibition at fixed concentration
[3] = biological target: T1, human HDAC11 (Homo sapiens, UniProt Q96DB2); assay: HDAC11 inhibitor enzymatic assay, % inhibition at fixed concentration
T1 sequence (Q96DB2 1-347): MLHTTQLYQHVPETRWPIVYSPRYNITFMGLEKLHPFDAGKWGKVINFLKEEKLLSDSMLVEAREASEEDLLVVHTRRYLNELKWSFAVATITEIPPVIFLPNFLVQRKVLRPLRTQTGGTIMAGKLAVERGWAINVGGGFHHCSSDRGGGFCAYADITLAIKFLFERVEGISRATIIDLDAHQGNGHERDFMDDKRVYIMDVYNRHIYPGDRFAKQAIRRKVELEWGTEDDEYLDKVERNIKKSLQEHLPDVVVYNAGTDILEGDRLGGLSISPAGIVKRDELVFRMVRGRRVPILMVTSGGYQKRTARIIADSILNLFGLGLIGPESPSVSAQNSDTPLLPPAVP

[4] = biological target: T2, human HDAC6 (Homo sapiens, UniProt Q9UBN7); assay: HDAC6 inhibitor enzymatic assay, % inhibition at fixed concentration; settings: read-out: % Inhibition HDAC6
T2 sequence (Q9UBN7 1-1215): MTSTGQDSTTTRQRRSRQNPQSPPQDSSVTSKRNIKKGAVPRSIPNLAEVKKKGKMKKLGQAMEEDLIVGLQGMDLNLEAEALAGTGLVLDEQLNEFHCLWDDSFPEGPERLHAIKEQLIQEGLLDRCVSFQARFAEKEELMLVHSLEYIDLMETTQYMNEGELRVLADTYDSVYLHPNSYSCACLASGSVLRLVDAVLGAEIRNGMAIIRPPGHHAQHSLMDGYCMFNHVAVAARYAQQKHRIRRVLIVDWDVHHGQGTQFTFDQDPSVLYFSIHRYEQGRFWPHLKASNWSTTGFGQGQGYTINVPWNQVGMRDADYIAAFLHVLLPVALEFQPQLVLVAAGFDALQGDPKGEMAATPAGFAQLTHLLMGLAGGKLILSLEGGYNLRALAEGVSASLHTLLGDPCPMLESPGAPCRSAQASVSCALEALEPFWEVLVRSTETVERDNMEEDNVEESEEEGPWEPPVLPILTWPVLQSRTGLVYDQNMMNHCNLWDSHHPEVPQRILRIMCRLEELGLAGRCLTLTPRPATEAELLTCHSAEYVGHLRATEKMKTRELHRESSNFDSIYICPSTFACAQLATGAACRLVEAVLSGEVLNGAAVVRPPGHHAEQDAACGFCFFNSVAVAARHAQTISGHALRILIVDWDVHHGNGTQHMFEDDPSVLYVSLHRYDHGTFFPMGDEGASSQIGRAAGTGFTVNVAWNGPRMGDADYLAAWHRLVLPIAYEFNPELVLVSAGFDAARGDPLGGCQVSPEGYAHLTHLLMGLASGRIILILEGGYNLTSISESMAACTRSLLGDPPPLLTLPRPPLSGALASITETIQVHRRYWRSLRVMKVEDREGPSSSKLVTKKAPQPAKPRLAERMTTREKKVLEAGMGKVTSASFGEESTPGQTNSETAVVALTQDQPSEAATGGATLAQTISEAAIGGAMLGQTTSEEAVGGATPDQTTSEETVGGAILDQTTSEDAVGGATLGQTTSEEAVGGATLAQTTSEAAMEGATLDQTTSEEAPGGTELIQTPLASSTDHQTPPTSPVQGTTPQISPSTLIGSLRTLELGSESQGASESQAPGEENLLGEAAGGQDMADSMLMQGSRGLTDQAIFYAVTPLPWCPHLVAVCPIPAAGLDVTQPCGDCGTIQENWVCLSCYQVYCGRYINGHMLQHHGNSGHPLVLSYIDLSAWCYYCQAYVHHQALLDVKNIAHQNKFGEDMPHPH

[5] = biological target: T3, human HDAC8 (Homo sapiens, UniProt Q9BY41); assay: HDAC8 inhibitor enzymatic assay, % inhibition at fixed concentration; type: biochemical
T3 construct: purchased BPS Bioscience 50008
T3 sequence (Q9BY41 1-377): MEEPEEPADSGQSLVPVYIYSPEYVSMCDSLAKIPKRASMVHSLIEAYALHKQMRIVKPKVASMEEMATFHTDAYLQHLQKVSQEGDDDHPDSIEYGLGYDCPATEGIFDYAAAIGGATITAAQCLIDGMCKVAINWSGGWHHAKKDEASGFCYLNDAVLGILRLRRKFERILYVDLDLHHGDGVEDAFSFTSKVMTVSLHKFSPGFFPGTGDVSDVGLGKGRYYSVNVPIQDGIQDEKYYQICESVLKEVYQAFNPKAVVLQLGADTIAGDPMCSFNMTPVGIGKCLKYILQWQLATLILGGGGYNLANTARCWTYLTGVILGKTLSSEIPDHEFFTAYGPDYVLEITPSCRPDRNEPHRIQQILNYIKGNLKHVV

[6] = biological target: T2, human HDAC6; assay: IC50 of the test inhibitor against HDAC6 (10-dose enzymatic assay); type: biochemical; set-up: purchased BPS Bioscience 50006
[7] = biological target: human HDAC9 (Homo sapiens, UniProt Q9UKV0); assay: HDAC9 inhibitor enzymatic assay, % inhibition at fixed concentration
[8] = read-out: HDAC6 % Activity Repeat1
[9] = read-out: HDAC6 % Activity Repeat2

human HDAC9, sequence (Q9UKV0 1-1066 isoform Q9UKV0-5): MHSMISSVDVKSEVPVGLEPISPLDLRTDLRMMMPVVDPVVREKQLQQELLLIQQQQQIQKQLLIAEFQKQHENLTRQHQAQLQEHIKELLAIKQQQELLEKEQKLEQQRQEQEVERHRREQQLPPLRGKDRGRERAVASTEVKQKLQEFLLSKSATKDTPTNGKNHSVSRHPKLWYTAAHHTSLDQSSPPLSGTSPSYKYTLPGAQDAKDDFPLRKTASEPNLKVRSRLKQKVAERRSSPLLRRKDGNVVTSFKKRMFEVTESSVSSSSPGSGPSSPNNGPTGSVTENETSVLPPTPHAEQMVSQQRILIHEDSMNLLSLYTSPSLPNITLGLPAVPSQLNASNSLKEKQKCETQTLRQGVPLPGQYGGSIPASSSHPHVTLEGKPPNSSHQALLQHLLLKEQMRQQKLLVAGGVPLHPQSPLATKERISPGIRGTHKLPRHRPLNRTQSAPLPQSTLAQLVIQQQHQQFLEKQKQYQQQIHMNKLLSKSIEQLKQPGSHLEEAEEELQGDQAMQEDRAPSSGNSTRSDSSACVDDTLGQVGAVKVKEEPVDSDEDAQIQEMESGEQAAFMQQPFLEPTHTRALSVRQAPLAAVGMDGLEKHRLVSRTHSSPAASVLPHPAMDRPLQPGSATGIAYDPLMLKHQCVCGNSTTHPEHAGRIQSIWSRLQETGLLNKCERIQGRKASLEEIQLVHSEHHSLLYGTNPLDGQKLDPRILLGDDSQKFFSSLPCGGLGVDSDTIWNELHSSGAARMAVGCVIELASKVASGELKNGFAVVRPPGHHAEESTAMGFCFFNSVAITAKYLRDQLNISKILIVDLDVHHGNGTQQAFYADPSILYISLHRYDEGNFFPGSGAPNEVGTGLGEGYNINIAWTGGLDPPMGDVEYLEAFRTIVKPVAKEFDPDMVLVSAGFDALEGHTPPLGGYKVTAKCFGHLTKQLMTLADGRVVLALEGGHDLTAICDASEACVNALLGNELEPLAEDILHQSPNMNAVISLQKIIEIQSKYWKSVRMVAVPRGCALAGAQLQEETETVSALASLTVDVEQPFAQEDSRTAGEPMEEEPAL
human HDAC5, sequence (Q9UQL6 656-1122 limits assumed): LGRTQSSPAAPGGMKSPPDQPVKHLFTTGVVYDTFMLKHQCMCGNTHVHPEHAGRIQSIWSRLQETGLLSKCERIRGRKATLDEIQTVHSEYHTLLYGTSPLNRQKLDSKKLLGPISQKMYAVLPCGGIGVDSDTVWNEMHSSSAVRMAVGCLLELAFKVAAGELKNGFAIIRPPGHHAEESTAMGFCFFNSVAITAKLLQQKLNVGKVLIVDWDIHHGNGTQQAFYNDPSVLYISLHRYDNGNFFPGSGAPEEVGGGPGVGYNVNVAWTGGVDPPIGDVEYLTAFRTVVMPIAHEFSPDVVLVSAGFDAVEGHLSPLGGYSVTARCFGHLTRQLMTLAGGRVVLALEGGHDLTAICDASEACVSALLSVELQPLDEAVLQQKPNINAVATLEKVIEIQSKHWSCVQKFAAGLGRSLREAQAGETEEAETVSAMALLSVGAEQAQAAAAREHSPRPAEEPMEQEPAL
human HDAC4, sequence (P56524 627-1084 limits assumed): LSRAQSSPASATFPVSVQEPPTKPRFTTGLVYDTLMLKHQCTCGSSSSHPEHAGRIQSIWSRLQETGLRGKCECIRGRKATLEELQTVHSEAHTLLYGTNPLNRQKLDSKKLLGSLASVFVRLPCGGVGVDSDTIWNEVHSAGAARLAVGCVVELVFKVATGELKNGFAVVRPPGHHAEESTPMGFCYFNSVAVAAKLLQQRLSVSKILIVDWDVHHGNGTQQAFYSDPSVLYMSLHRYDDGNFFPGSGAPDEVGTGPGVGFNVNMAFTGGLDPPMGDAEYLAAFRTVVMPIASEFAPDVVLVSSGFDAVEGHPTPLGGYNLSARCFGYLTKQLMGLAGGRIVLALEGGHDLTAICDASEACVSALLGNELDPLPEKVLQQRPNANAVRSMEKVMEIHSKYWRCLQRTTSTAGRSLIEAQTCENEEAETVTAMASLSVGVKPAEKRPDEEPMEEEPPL

CC(=C/C(C)C(=O)c1ccc(N(C)C)cc1)/C=C/C(=O)NO (centres unmarked) [TSA, Trichostatin A, reference compound]
inhibition at 1 µM ([1]; read-out: % Inhibition HDAC5): 33% | inhibition at 100 µM ([1]; read-out: % Inhibition HDAC5): 93% | inhibition at 10 µM ([1]; read-out: %inhibition of HDACs at 10µM of test compound HDAC5): 64% | inhibition at 1 µM ([2]; read-out: % Inhibition HDAC4): 36% | inhibition at 100 µM ([2]; read-out: % Inhibition HDAC4): 92% | inhibition at 10 µM ([2]; read-out: %inhibition of HDACs at 10µM of test compound HDAC4): 64% | inhibition at 1 µM ([3]; read-out: % Inhibition HDAC11): 15% | inhibition at 100 µM ([3]; read-out: % Inhibition HDAC11): 91% | inhibition at 10 µM ([3]; read-out: %inhibition of HDACs at 10µM of test compound HDAC11): 49% | inhibition at 1 µM [4]: 100% | inhibition at 1 µM ([5]; read-out: % Inhibition HDAC8): 53% | inhibition at 10 µM ([5]; read-out: %inhibition of HDACs at 10µM of test compound HDAC8): 89% | activity at 30 pM [6, 8]: 100% | activity at 0.0001 µM [6, 8]: 98% | activity at 0.0003 µM [6, 8]: 96% | activity at 0.001 µM [6, 8]: 79% | activity at 0.003 µM [6, 8]: 63% | activity at 0.01 µM [6, 8]: 36% | activity at 0.03 µM [6, 8]: 15% | activity at 0.1 µM [6, 8]: 5% | activity at 0.3 µM [6, 8]: 2% | activity at 1 µM [6, 8]: 0% | activity at 30 pM [6, 9]: 98% | activity at 0.0001 µM [6, 9]: 96% | activity at 0.0003 µM [6, 9]: 89% | activity at 0.001 µM [6, 9]: 84% | activity at 0.003 µM [6, 9]: 58% | activity at 0.01 µM [6, 9]: 34% | activity at 0.03 µM [6, 9]: 13% | activity at 0.1 µM [6, 9]: 5% | activity at 0.3 µM [6, 9]: 2% | activity at 1 µM [6, 9]: 0% | inhibition at 1 µM ([7]; read-out: % Inhibition HDAC9): 15% | inhibition at 100 µM ([7]; read-out: % Inhibition HDAC9): 95% | inhibition at 10 µM ([7]; read-out: %inhibition of HDACs at 10µM of test compound HDAC9): 60%
